Data published in patent US20230072683A1, “PYRIDO-PYRIMIDIN DERIVATIVES AND PHARMACEUTICAL COMPOSITION, FOR USE IN PREVENTING OR TREATING PI3 KINASE RELATED DISEASES, COMPRISING SAME AS ACTIVE INGREDIENT” (BORYUNG PHARMACEUTICAL CO., LTD, priority 2019, published 2023).

Columns and labels:
[1] = molecular target: PI3K-δ (PI3K(p1108/p857) (h)) (Homo sapiens, UniProt O00329); test: Evaluation of inhibitory activity against PI3K-δ (HTRF kinase assay); format: biochemical; settings: compound at 0.1 μM; read-out: EXP_VALUE(% Inhibition) PI3K-δ 0.1 μM
How it was run: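 HTRF read-out (665/620 nm ratio ×10000) used Eu-labelled anti-GST, GST-tagged GRP1 PH domain and streptavidin-allophycocyanin after EDTA/PIP3 stop.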

[2] = molecular target: DNA-PK(h) (Homo sapiens, UniProt P78527); test: Evaluation of inhibitory activity against DNA-PK (HTRF kinase assay, GST-cMyc-p53 substrate); format: biochemical; settings: compound at 0.1 μM; read-out: EXP_VALUE(% Inhibition) DNA-PK(h) 0.1 μM
How it was run: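 Human DNA-PK with 50 μM GST-cMyc-p53 substrate; reaction started with Mg/ATP, run 30 min at room temperature, stopped with EDTA. Phospho-Ser15 p53 detected by HTRF (Eu anti-phospho-Ser15, d2 anti-GST), signal = 10000×(Em 665/Em 620).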

Chain of PI3K-δ (PI3K(p1108/p857) (h)) (O00329 whole entry, the tested form may be a part): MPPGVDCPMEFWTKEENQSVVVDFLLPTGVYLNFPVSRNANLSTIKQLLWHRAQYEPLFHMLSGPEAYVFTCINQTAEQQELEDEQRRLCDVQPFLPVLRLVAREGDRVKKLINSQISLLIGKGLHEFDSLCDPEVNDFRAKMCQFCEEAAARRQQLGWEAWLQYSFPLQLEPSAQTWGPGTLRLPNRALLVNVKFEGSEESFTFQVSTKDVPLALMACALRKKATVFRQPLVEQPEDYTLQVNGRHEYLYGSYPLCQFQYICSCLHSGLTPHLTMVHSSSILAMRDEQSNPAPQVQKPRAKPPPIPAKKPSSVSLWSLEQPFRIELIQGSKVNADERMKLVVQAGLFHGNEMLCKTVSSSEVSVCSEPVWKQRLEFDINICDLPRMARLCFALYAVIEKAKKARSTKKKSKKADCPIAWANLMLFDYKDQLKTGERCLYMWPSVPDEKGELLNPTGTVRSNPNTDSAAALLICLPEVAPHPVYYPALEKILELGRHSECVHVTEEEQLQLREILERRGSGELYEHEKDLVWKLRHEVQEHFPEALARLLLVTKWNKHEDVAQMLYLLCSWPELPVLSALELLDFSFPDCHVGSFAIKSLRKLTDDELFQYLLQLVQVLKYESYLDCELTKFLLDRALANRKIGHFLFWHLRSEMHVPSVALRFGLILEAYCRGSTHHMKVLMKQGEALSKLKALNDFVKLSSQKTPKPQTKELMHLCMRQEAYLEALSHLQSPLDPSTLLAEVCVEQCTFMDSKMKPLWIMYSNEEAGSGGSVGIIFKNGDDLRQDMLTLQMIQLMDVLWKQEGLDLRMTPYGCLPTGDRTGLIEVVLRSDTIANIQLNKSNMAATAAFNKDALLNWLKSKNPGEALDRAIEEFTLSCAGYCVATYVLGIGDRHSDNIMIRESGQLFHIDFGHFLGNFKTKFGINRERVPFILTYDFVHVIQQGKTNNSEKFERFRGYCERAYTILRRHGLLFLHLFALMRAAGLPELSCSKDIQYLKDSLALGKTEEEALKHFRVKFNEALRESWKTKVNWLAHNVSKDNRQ
Chain of PI3K-δ (PI3K(p1108/p857) (h)) (P27986 whole entry partner, the tested form may be a part): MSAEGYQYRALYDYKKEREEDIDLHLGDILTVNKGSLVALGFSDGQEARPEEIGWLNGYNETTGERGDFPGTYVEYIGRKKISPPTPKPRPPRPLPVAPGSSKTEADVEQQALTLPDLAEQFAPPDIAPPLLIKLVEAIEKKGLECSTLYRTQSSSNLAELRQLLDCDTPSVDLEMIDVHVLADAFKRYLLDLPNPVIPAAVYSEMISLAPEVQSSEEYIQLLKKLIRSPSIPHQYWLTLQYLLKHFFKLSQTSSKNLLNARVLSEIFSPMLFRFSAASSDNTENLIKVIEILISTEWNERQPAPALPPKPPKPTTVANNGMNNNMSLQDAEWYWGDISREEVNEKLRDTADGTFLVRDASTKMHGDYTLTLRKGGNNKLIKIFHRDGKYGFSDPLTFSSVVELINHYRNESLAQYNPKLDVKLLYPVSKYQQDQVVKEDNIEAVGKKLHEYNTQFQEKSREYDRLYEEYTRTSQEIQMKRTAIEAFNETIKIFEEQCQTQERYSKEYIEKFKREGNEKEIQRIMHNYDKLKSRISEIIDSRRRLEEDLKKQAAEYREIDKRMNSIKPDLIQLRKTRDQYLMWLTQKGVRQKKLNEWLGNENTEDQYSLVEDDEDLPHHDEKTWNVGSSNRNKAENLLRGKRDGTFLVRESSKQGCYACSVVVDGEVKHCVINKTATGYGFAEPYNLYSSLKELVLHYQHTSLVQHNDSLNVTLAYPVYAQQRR

Row | SMILES | inhibition at 0.1 µM [1] [%] | inhibition at 0.1 µM [2] [%]
1 | C[C@H](Nc1ncnc2[nH]ccc(=O)c12)c1c(Cl)c2cccc(S(C)(=O)=O)c2c(=O)n1-c1ccccc1 [Example 390, (S)-4-((1-(4-chloro-8-(methylsulfonyl)-1-oxo-2-phenyl-1,2-dihydroisoquinolin-3-yl)ethyl)amino)pyrido[2,3-d]pyrimidin-5(8H)-one] | 89 | 18
2 | C[C@H](Nc1ncnc2[nH]ccc(=O)c12)c1c(Cl)c2cccc(S(=O)(=O)c3ccncc3)c2c(=O)n1-c1ccccc1 [Example 391, (S)-4-((1-(4-chloro-1-oxo-2-phenyl-8-(pyridin-4-ylsulfonyl)-1,2-dihydroisoquinolin-3-yl)ethyl)amino)pyrido[2,3-d]pyrimidin-5(8H)-one] | 98 | 22
3 | C[C@H](Nc1ncnc2[nH]ccc(=O)c12)c1c(Cl)c2cccc(-c3cnc(S(C)(=O)=O)nc3)c2c(=O)n1-c1ccccc1 [Example 392, (S)-4-((1-(4-chloro-8-(2-(methylsulfonyl)pyrimidin-5-yl)-1-oxo-2-phenyl-1,2-dihydroisoquinolin-3-yl)ethyl)amino)pyrido[2,3-d]pyrimidin-5(8H)-one] | 94 | 45
4 | C[C@H](Nc1ncnc2[nH]ccc(=O)c12)c1c(Cl)c2cccc(S(=O)(=O)c3ccc(Cl)cc3)c2c(=O)n1-c1ccccc1 [Example 393, (S)-4-((1-(4-chloro-8-((4-chlorophenyl)sulfonyl)-1-oxo-2-phenyl-1,2-dihydroisoquinolin-3-yl)ethyl)amino)pyrido[2,3-d]pyrimidin-5(8H)-one] | 84 | 17
5 | C[C@H](Nc1ncnc2[nH]ccc(=O)c12)c1c(Cl)c2cccc([S@+]([O-])c3ccc(OC(F)(F)F)cc3)c2c(=O)n1-c1ccccc1 [Example 395, 4-(((S)-1-(4-chloro-1-oxo-2-phenyl-8-(((R)-4-(trifluoromethoxy)phenyl)sulfinyl)-1,2-dihydroisoquinolin-3-yl)ethyl)amino)pyrido[2,3-d]pyrimidin-5(8H)-one] | 12 | 15
6 | CCC[S@+]([O-])c1cccc2c(Cl)c([C@H](C)Nc3ncnc4[nH]ccc(=O)c34)n(-c3ccccc3)c(=O)c12 [Example 396, 4-(((S)-1-(4-chloro-1-oxo-2-phenyl-8-((S)-propylsulfinyl)-1,2-dihydroisoquinolin-3-yl)ethyl)amino)pyrido[2,3-d]pyrimidin-5(8H)-one] | 29 | 46
7 | CCC[S@@+]([O-])c1cccc2c(Cl)c([C@H](C)Nc3ncnc4[nH]ccc(=O)c34)n(-c3ccccc3)c(=O)c12 [Example 397] | 94 | 34
8 | C[C@H](Nc1ncnc2[nH]ccc(=O)c12)c1c(Cl)c2cccc(Sc3ccc(F)cc3)c2c(=O)n1-c1ccccc1 [Example 398, (S)-4-((1-(4-chloro-8-((4-fluorophenyl)thio)-1-oxo-2-phenyl-1,2-dihydroisoquinolin-3-yl)ethyl)amino)pyrido[2,3-d]pyrimidin-5(8H)-one] | 7 | 3
9 | C[C@H](Nc1ncnc2[nH]ccc(=O)c12)c1c(Cl)c2cccc(S(=O)(=O)c3ccc(F)cc3)c2c(=O)n1-c1ccccc1 [Example 399, (S)-4-((1-(4-chloro-8-((4-fluorophenyl)sulfonyl)-1-oxo-2-phenyl-1,2-dihydroisoquinolin-3-yl)ethyl)amino)pyrido[2,3-d]pyrimidin-5(8H)-one] | 92 | 23
10 | C[C@H](Nc1ncnc2[nH]ccc(=O)c12)c1c(Cl)c2cccc(Sc3nc[nH]n3)c2c(=O)n1-c1ccccc1 [Example 400, (S)-4-((1-(8-((1H-1,2,4-triazol-3-yl)thio)-4-chloro-1-oxo-2-phenyl-1,2-dihydroisoquinolin-3-yl)ethyl)amino)pyrido[2,3-d]pyrimidin-5(8H)-one] | 16 | -2
11 | C[C@H](Nc1ncnc2[nH]ccc(=O)c12)c1c(Cl)c2cccc(S(=O)(=O)c3nc[nH]n3)c2c(=O)n1-c1ccccc1 [Example 401, (S)-4-((1-(8-((1H-1,2,4-triazol-3-yl)sulfonyl)-4-chloro-1-oxo-2-phenyl-1,2-dihydroisoquinolin-3-yl)ethyl)amino)pyrido[2,3-d]pyrimidin-5(8H)-one] | 42 | 24
12 | C[C@H](Nc1ncnc2[nH]ccc(=O)c12)c1c(Cl)c2cccc(-c3cnc(Cl)nc3)c2c(=O)n1-c1ccccc1 [Example 402, (S)-4-((1-(4-chloro-8-(2-chloropyrimidin-5-yl)-1-oxo-2-phenyl-1,2-dihydroisoquinolin-3-yl)ethyl)amino)pyrido[2,3-d]pyrimidin-5(8H)-one] | 71 | 16
13 | CC(=O)c1ncc(-c2cccc3c(Cl)c([C@H](C)Nc4ncnc5[nH]ccc(=O)c45)n(-c4ccccc4)c(=O)c23)cn1 [Example 403, (S)-4-((1-(8-(2-acetylpyrimidin-5-yl)-4-chloro-1-oxo-2-phenyl-1,2-dihydroisoquinolin-3-yl)ethyl)amino)pyrido[2,3-d]pyrimidin-5(8H)-one] | 80 | 46
14 | CCOC(C)(C)c1ncc(-c2cccc3c(Cl)c([C@H](C)Nc4ncnc5[nH]ccc(=O)c45)n(-c4ccccc4)c(=O)c23)cn1 [Example 404, (S)-4-((1-(4-chloro-8-(2-(2-ethoxypropan-2-yl)pyrimidin-5-yl)-1-oxo-2-phenyl-1,2-dihydroisoquinolin-3-yl)ethyl)amino)pyrido[2,3-d]pyrimidin-5(8H)-one] | 70 | 78
15 | COC(C)(C)c1ncc(-c2cccc3c(Cl)c([C@H](C)Nc4ncnc5[nH]ccc(=O)c45)n(-c4ccccc4)c(=O)c23)cn1 [Example 405, (S)-4-((1-(4-chloro-8-(2-(2-methoxypropan-2-yl)pyrimidin-5-yl)-1-oxo-2-phenyl-1,2-dihydroisoquinolin-3-yl)ethyl)amino)pyrido[2,3-d]pyrimidin-5(8H)-one] | 69 | 74
16 | CCCOC(C)(C)c1ncc(-c2cccc3c(Cl)c([C@H](C)Nc4ncnc5[nH]ccc(=O)c45)n(-c4ccccc4)c(=O)c23)cn1 [Example 406, (S)-4-((1-(4-chloro-1-oxo-2-phenyl-8-(2-(2-propoxypropan-2-yl)pyrimidin-5-yl)-1,2-dihydroisoquinolin-3-yl)ethyl)amino)pyrido[2,3-d]pyrimidin-5(8H)-one] | 72 | 71
17 | C[C@H](Nc1ncnc2[nH]ccc(=O)c12)c1c(Cl)c2cccc(-c3cnc(S(C)(=N)=O)nc3)c2c(=O)n1-c1ccccc1 (stereo partly drawn) [Example 407, 4-(((1S)-1-(4-chloro-8-(2-(S-methylsulfonimidoyl)pyrimidin-5-yl)-1-oxo-2-phenyl-1,2-dihydroisoquinolin-3-yl)ethyl)amino)pyrido[2,3-d]pyrimidin-5(8H)-one] | 67 | 70
18 | CCC[S@@](=N)(=O)c1cccc2c(Cl)c([C@H](C)Nc3ncnc4[nH]ccc(=O)c34)n(-c3ccccc3)c(=O)c12 [Example 408, 4-(((S)-1-(4-chloro-1-oxo-2-phenyl-8-((R)-propylsulfonimidoyl)-1,2-dihydroisoquinolin-3-yl)ethyl)amino)pyrido[2,3-d]pyrimidin-5(8H)-one] | 71 | 28
19 | CCC[S@](=N)(=O)c1cccc2c(Cl)c([C@H](C)Nc3ncnc4[nH]ccc(=O)c34)n(-c3ccccc3)c(=O)c12 [Example 409, 4-(((S)-1-(4-chloro-1-oxo-2-phenyl-8-((S)-propylsulfonimidoyl)-1,2-dihydroisoquinolin-3-yl)ethyl)amino)pyrido[2,3-d]pyrimidin-5(8H)-one] | 17 | 53
20 | CC(C)[S@@](=N)(=O)c1cccc2c(Cl)c([C@H](C)Nc3ncnc4[nH]ccc(=O)c34)n(-c3ccccc3)c(=O)c12 [Example 410, 4-(((S)-1-(4-chloro-1-oxo-2-phenyl-8-((R)-propan-2-ylsulfonimidoyl)-1,2-dihydroisoquinolin-3-yl)ethyl)amino)pyrido[2,3-d]pyrimidin-5(8H)-one] | 14 | 23
21 | CC(C)[S@](=N)(=O)c1cccc2c(Cl)c([C@H](C)Nc3ncnc4[nH]ccc(=O)c34)n(-c3ccccc3)c(=O)c12 [Example 411, 4-(((S)-1-(4-chloro-1-oxo-2-phenyl-8-((S)-propan-2-ylsulfonimidoyl)-1,2-dihydroisoquinolin-3-yl)ethyl)amino)pyrido[2,3-d]pyrimidin-5(8H)-one] | 4 | 37
22 | C[C@H](Nc1ncnc2[nH]ccc(=O)c12)c1c(Cl)c2cccc(Sc3ccccn3)c2c(=O)n1-c1ccccc1 [Example 412, (S)-4-((1-(4-chloro-1-oxo-2-phenyl-8-(pyridin-2-ylthio)-1,2-dihydroisoquinolin-3-yl)ethyl)amino)pyrido[2,3-d]pyrimidin-5(8H)-one] | 29 | 15
23 | C[C@H](Nc1ncnc2[nH]ccc(=O)c12)c1c(Cl)c2cccc([S+]([O-])c3ccccn3)c2c(=O)n1-c1ccccc1 (stereo partly drawn) [Example 413, 4-(((1S)-1-(4-chloro-1-oxo-2-phenyl-8-(pyridin-2-ylsulfinyl)-1,2-dihydroisoquinolin-3-yl)ethyl)amino)pyrido[2,3-d]pyrimidin-5(8H)-one] | 16 | 30
